Patent US20230075765A1, “PYRROLO[2,3-D]PYRIMIDINE DERIVATIVE TARGETING EGFR MUTATION, AS WELL AS THE PREPARATIVE METHOD AND THE USE THEREOF” (WEST CHINA HOSPITAL, SICHUAN UNIVERSITY, priority 2020, published 2023)
Like-named read-outs stand apart in the source and are kept apart here.

Experiments:
H1975 cells = assay: Inhibition of cell proliferation, CCK8 method; type: cell-based, human; details: 48 h, read-out: Inhibitory activity (IC50) against H1975
Experimental: (§1) The stock solution was diluted with the corresponding culture medium to the required concentration just before the experiment.
(§2) HBE cells and BEAS-2B cells are normal lung bronchial epithelial cell lines, and both cells were cultured in DMEM high glucose medium (supplemented with 10% fetal bovine serum and 1% double antibody) to the logarithmic growth phase; H460 cells, A549 cells, H1975 cells and HCC827 cells are lung cancer cell lines, and all of them were cultured in RPMI1640 medium (supplemented with 10% fetal bovine serum and 1% double antibody) to the logarithmic growth phase. Among them, H1975 cells and HCC827 cells are EGFR mutant cells.
(§3) The cells were counted, and then seeded in a 96-well plate at a density of 5000 cells/well, 100 μl for each well. The culture plate was moved into a CO2 incubator and incubated for 24 h at 37° C. and 5% CO2. Compounds at different concentrations were added to each well, 5 replicate wells for each concentration, and the cells were treated with the compounds for 48 hours. CCK8 detection reagent was added to each well according to the operation manual, and then the plate was further incubated for 1 h before terminating the culture. 450 nm wavelength was chosen, and the absorbance value of each well was adjusted on the microplate ELISA analyzer. The result was recorded. […] was taken as the horizontal axis, and absorbance as the vertical axis to plot a curve. The half inhibitory concentration (IC50) was calculated by Bliss method. Each experiment was repeated at least 3 times.
(§4) Normal lung cell lines and different lung cancer cell lines were selected for experiments.

HBE cells = assay: Inhibition of cell proliferation, CCK8 method; type: cell-based, human; details: for IC50: HBE normal bronchial epithelial cells, 48 h, CCK8, read-out: Inhibitory activity (IC50) against HBE
Experimental: as §1, §2, §3, §4

HCC827 cells = assay: Inhibition of cell proliferation, CCK8 method; type: cell-based, human; details: for IC50: HCC827 EGFR mutant cells, 48 h, CCK8, read-out: Inhibitory activity (IC50) against HCC827; for selectivity for HCC827 cells (in words): EGFR mutant HCC827 cells versus other cell lines
Experimental: as §1, §2, §3, §4

BTK = target: T1, BTK (Homo sapiens, UniProt Q06187); assay: Kinase inhibition, mobility shift assay; type: biochemical; details: for Single-concentration inhibitory activity on BTK, Mean (100% inhibition): compound concentration 4 nM; for IC50: read-out: Inhibitory activity (IC50) on BTK
T1 construct: purchased Carna 08-180
Experimental: (§5) According to relevant literature, the inhibitory activity of five kinases (EGFR, EGFR-LT, EGFR-LTC, BTK, JAK3) were tested. Note: EGFR, EGFR-LT, EGFR-LTC: wild-type EGFR, L858R/T790M (EGFR-LT), or L858R/T790M/C797S (EGFR-LTC) mutant protein.
(§6) 95 μl of 100% DMSO was added to the first well of a 96-well plate, and then 5 μl of 10 mM compound solution was added to prepare a 500 μM compound solution.
(§7) 10 μl solution was taken out from the 50-fold concentration of compound solution (prepared and tested), and transferred to a 96-well plate, to which was added 90 μl kinase buffer to prepare a 5-fold concentration of compound solution.
(§8) 5 μl solution was taken out from the 5-fold concentration of compound solution in a 96-well plate, and transferred to a 384-well reaction plate. For example, the solution was transferred from well A1 of a 96-well plate to wells A1 and A2 of a 384-well plate, from well A2 of a 96-well plate to wells A3 and A4 of a 384-well plate, and so on.
(§9) 1) The kinase was added to 1× kinase buffer to form 2.5× kinase solution;
(§10) 2) 10 μl of the above 2.5× kinase solution was transferred to a 384-well reaction plate, and 1× kinase buffer was added to the negative control well, then incubated for 10 min at room temperature;
(§11) 3) FAM-labeled polypeptide and ATP were added to 1× kinase buffer to form a 2.5×substrate solution;
(§12) 5) The 384-well reaction plate was incubated at 28° C. for 60 min, to which was added 30 μl of stop solution to stop the reaction, and the model of biochemical incubator was SPX-100B-Z.
(§13) The conversion rate was read on CaliperEZ Reader.
(§14) 1) The conversion rate data were copied from CaliperEZ Reader II;
(§15) 2) The conversion rate was converted into the inhibition rate;
(§16) Percent inhibition=(max−conversion)/(max−min)*100
(§17) “min” is the reading of the control well without enzyme; “max” is the reading of DMSO control well.
(§18) 3) IC50 values were fitted by using XLFit excel add-in version 5.4.0.8.
(§19) Fitting formula: Y=Bottom+(Top−Bottom)/(1+(IC50/X)^HillSlope)

EGFR (T790M L858R) = target: T2, EGFR (T790M L858R) (Homo sapiens, UniProt P00533, L858R/T790M); assay: Kinase inhibition, mobility shift assay; type: biochemical; details: for Single-concentration inhibitory activity against EGFR T790M L858R, Mean (100% inhibition): compound concentration 2 nM; for IC50: EGFR L858R/T790M double mutation, read-out: Inhibitory activity (IC50) on EGFR (T790M L858R); for inhibitory activity against EGFR L858R/T790M higher than against wild-type EGFR: ratio of IC50 values wild-type EGFR / EGFR L858R/T790M
T2 construct: purchased Invitrogen PR8911A
Experimental: as §5, §6, §7, §8, §9, §10, §11, §12, §13, §14, §15, §16, §17, §18, §19

[1] = target: T3, EGFR (T790M, C797S, L858R) (Homo sapiens, UniProt P00533, C797S/L858R/T790M); assay: Kinase inhibition, Lantha Screen assay; type: biochemical; details: for Single-concentration inhibitory activity against EGFR (T790M, C7975, L858R), Mean (100% inhibition): compound concentration 2 nM; for IC50: read-out: Inhibitory activity (IC50) on EGFR (T790M, C797S, L858R)
T3 construct: purchased BPS 40351
Experimental: According to relevant literature, the inhibitory activity of five kinases (EGFR, EGFR-LT, EGFR-LTC, BTK, JAK3) were tested. Note: EGFR, EGFR-LT, EGFR-LTC: wild-type EGFR, L858R/T790M (EGFR-LT), or L858R/T790M/C797S (EGFR-LTC) mutant protein. […]
1) The initial detection concentration of the compound is 10 μM, and the compound was prepared into a 100-fold concentration, namely 1000 μM. 95 μl of 100% DMSO was added to the first well of a 96-well plate, and then 10 μl of 10 mM compound solution was added to prepare a 1000 μM compound solution. 50 μl of […] compound solution prepared above was transferred to a 384-well Echo plate;
2) 50 μl of 100% DMSO was transferred to two empty wells as a control without compound and enzyme;
3) Echo 550 was used to transfer 100 nl of compound solution to a 384-well test plate. 2.3 Kinase reaction and termination
1) EGFR (T790M, C797S, L858R) was added to 1× kinase buffer to form 2× kinase solution;
2) 5 μl of the above 2× kinase solution was transferred to a 384-well reaction plate, and 1× kinase buffer was added to the negative control well, then incubated for 10 min at room temperature;
3) Fluorescein-PolyGT and ATP were added to 1× kinase buffer to form a 2× substrate solution;
4) 5 μl of the above 2× substrate solution was transferred to a 384-well reaction plate;
5) The 384-well reaction plate was incubated at room temperature for 30 min;
6) 2× mixed solution of antibody and EDTA was prepared, of which […] was added to the 384-well reaction plate to stop the reaction;
7) The plate was left at room temperature for 60 min.
Percent inhibition=(max−Lantha signal)/(max−min)*100
“min” is the reading of the control well without enzyme; “max” is the reading of DMSO control well. 3) The data were imported into MS Excel, and IC50 results were subjected to curve fitting by using XLFit excel add-in version 5.4.0.8:
as §19

[2] = Homo sapiens, NCI-H1975, H1975 EGFR mutant cells

T2 sequence (P00533 25-1210 T790M/L858R): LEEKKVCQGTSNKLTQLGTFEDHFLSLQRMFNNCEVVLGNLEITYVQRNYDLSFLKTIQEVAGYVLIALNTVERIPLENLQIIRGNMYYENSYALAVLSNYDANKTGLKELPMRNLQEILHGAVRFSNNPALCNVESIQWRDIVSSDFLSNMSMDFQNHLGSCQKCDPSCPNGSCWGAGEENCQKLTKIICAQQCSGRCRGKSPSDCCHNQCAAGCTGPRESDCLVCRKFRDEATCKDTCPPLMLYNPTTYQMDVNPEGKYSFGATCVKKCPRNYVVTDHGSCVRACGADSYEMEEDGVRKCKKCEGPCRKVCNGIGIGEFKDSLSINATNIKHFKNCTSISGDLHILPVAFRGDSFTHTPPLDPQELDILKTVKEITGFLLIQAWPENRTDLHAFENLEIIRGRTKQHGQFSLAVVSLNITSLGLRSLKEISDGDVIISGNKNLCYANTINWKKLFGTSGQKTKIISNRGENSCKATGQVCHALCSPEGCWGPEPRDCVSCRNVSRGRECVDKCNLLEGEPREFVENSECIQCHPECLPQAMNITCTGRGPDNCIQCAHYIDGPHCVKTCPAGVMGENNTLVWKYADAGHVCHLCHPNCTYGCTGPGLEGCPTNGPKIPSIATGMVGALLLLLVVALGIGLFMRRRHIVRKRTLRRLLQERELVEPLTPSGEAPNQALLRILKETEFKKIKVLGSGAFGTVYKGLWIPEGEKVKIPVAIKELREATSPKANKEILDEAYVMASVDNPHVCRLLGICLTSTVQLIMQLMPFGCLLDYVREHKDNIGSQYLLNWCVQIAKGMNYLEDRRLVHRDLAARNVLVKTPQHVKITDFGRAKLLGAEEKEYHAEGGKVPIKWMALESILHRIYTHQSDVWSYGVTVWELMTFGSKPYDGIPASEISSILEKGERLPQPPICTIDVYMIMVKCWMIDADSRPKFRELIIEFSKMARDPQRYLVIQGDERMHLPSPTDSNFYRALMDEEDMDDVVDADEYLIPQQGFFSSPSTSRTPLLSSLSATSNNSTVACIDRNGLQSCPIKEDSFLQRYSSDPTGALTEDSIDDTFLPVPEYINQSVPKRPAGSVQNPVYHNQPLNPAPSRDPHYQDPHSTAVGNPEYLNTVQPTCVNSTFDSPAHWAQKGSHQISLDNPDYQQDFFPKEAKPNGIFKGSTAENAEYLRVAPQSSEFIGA
T3 sequence (P00533 25-1210 T790M/C797S/L858R): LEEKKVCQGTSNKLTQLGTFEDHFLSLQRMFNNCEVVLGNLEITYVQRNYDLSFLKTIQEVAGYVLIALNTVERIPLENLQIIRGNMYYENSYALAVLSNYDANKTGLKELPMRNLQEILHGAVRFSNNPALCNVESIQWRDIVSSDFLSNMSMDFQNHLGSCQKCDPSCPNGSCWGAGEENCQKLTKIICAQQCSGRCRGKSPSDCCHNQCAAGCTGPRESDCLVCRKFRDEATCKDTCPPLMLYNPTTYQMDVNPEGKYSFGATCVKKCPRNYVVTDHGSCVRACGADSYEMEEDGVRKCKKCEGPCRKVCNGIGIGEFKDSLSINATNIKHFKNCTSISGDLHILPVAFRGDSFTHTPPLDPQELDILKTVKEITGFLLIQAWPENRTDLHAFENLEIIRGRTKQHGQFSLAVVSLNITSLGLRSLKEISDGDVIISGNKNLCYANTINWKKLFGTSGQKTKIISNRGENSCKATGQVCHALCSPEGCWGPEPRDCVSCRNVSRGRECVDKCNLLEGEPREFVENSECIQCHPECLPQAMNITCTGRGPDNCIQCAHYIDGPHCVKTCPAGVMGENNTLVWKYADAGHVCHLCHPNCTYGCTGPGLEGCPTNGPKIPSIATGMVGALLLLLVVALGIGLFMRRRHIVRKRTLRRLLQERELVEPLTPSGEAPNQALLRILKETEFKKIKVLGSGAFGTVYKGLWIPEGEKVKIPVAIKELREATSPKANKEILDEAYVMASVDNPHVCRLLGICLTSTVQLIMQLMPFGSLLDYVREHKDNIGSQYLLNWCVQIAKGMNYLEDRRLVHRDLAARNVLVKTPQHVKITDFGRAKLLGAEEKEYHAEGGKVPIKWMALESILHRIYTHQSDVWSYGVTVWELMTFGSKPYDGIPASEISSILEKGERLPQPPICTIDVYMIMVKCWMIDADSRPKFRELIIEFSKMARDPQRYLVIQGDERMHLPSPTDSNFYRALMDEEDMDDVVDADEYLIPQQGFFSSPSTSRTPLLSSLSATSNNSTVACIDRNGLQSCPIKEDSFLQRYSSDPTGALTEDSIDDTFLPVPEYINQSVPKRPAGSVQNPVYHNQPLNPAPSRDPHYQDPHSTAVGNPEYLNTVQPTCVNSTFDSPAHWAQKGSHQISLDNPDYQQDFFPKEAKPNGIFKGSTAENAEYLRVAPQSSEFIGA
T1 sequence (Q06187 whole entry): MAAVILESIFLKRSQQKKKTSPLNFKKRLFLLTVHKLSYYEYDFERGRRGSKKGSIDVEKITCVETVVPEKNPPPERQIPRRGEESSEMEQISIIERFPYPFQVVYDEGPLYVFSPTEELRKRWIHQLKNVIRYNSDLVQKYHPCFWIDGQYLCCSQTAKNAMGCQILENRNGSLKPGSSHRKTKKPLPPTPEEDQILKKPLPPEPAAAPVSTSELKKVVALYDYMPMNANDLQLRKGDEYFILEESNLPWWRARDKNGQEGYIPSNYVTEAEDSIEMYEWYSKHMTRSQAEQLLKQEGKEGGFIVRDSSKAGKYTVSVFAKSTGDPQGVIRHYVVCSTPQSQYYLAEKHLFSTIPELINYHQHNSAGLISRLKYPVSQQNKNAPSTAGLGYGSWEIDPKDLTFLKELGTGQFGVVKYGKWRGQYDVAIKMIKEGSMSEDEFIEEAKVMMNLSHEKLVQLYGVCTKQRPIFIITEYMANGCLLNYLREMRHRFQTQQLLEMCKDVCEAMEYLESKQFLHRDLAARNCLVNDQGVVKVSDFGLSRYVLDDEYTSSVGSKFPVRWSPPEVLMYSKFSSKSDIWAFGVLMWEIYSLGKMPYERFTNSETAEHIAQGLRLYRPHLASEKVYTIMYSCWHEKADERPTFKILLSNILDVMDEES

Row | IC50 (H1975 cells; H1975 EGFR mutant cells) | IC50 (HCC827 cells) | Single-concentration inhibitory activity on BTK, Mean (100% inhibition) (BTK) | Single-concentration inhibitory activity against EGFR T790M L858R, Mean (100% inhibition) (EGFR (T790M L858R)) | Single-concentration inhibitory activity against EGFR (T790M, C7975, L858R), Mean (100% inhibition) [1] | IC50 (H1975 cells; [2]) | IC50 (HCC827 cells; Homo sapiens) | IC50 (BTK) | IC50 (EGFR (T790M L858R)) | inhibitory activity against EGFR L858R/T790M higher than against wild-type EGFR (EGFR (T790M L858R)) | IC50 [1] | Compound | IC50 (HBE cells) | IC50 (HBE cells; Homo sapiens) | selectivity for HCC827 cells (in words) (HCC827 cells) | toxicity to normal epithelial cells HBE cells (in words) (HBE cells; compared with positive control commercially available Avtinib) | selectivity coefficient (HCC827 cells; IC50 values against HBE cells compared with HCC827 cells) | inhibitory activity on HCC827 cells (in words) (HCC827 cells; CCK8, 48 h)
1 | 1670 nM | 120 nM | 37 % inhibition | 92 % inhibition | 9.2 % inhibition |  |  |  |  |  |  | C=CC(=O)Nc1cccc(Oc2nc(Nc3ccc(N4CCN(C)CC4)c(Cl)c3)nc3[nH]ccc23)c1 [Compound 2] | 8730 nM |  |  |  |  | 
2 |  |  | 15 % inhibition | 42 % inhibition | 7.8 % inhibition | 22400 nM | 260 nM | 31 nM | 3.1 nM | 70 fold | 1410 nM | C=CC(=O)Nc1cccc(Oc2nc(Nc3ccc(N4CCN(C)CC4)c(OC)c3)nc3[nH]ccc23)c1 [Compound 4] |  | 12500 nM | high targeting selectivity |  |  | 
3 |  |  | 3.8 % inhibition | 49 % inhibition | 5.8 % inhibition | 3100 nM | 100 nM | 43 nM | 2.7 nM | 54 fold | 2220 nM | C=CC(=O)Nc1cccc(Oc2nc(Nc3ccc(N4CCN(C)CC4)c([N+](=O)[O-])c3)nc3[nH]ccc23)c1 [Compound 5] |  | 7540 nM |  |  |  | 
4 |  |  | 27 % inhibition | 36 % inhibition | 8.0 % inhibition | 3840 nM | 46 nM | 11 nM | 3.4 nM | 18 fold | 464 nM | C=CC(=O)Nc1cccc(Oc2nc(Nc3ccc(N4CCN(C)CC4)c(N)c3)nc3[nH]ccc23)c1 [Compound 6] |  | 22700 nM | high targeting selectivity | less toxic | exceeds 490 times | 
5 |  |  | 5.9 % inhibition | 3.5 % inhibition | 8.4 % inhibition | 4120 nM | 440 nM |  |  |  |  | C=CC(=O)Nc1cccc(Oc2nc(Nc3ccc(N4CCN(C)CC4)c([N+](=O)[O-])c3)nc3c2ccn3COC(=O)C(C)(C)C)c1 [Compound 7] |  | 3610 nM |  |  |  | 
6 |  |  | −2.9 % inhibition | 2.4 % inhibition | 3.6 % inhibition | 42000 nM | 330 nM |  |  |  |  | C=CC(=O)Nc1cccc(Oc2nc(Nc3ccc(N4CCN(C)CC4)c(N)c3)nc3c2ccn3COC(=O)C(C)(C)C)c1 [Compound 8] |  | 9580 nM |  |  |  | certain inhibitory effect
7 |  |  | 3.3 % inhibition | 0.1 % inhibition | 2.1 % inhibition | 52300 nM | 51700 nM |  |  |  |  | C=CC(=O)Nc1cccc(Oc2nc(Nc3ccc(N4CCN(C)CC4)c(I)c3)nc3c2ccn3COC(=O)C(C)(C)C)c1 [Compound 9] |  | 7500 nM |  |  |  | 
